Tests used:
[1] = tested on: stage IV metastatic melanoma; details: in combination with paclitaxel, relative to patients treated with paclitaxel alone; cited from earlier work
[2] = tested on: M14 melanoma cells; assay: Cytotoxicity in confluent M14 cells, cell viability by CCK8 assay; format: cell-based; details: Homo sapiens, 48 h incubation, 0.25% DMSO, n=4
Procedure: M14 melanoma cells were seeded at 50,000 cells per well of 96-well plate in 100 μl of Dulbecco's minimum essential medium (DMEM) supplemented with 10% fetal bovine serum. Cells were cultured at 37° C. under 5% CO2-95% air. After 16 hours of incubation, the test compound was added to the cell culture. The compound was first diluted in 100% dimethyl sulfoxide (DMSO) at 400-fold of the final concentrations actually used in the assay. The DMSO solution was next diluted 20 fold with the culture medium, and then finally added to the assay wells at another 20-fold dilution. Assay medium included the test compound with concentrations as indicated with 0.25% DMSO. Cell viability was measured with a CCK8 assay (as described in the Technical Manual for Cell Counting Kit-8, Product #CK04-11, CK04-13 and CK04-20, Dojindo Molecular Technologies, Inc. MD, Tantular, I. S., et al. Tropical Medicine and International Health, 8(6), 569-574, 2003) in the last 15 minutes after a 48 h incubation with the test compound. Each bar of the figure expresses average percent inhibition against vehicle (0.25% DMSO) control (n=4).

Q: Which results are given for CN(NC(=O)CC(=O)NN(C)C(=S)c1ccccc1)C(=S)c1ccccc1 [compound A, N-malonyl-bis(N′-methyl-N′-thiobenzoylhydrazide)]?
A: time to progression [1]: increase the time to progression; IC50 [2]: > 12.5 µM

From US8461199B2, “Transition metal complexes of a bis[thio-hydrazide amide] compound” (Synta Pharmaceuticals Corp., priority 2008, dated 2013)
